Activity calls are given as the source filed them.
Tests used:
cells = type: functional
Bcl-2-related protein A1 = biological target: T1, Bcl-2-related protein A1 (Mus musculus, UniProt Q07440); assay: small-molecule antagonists of Bfl-1/BH3 interaction – biochemical, TR-FRET, mouse Bfl-1, confirmation (AID 621);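 note: TR-FRET binding of GST-Bfl-1 to FITC-labelled Bid peptide via terbium antibody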
T1 sequence (Q07440 whole entry): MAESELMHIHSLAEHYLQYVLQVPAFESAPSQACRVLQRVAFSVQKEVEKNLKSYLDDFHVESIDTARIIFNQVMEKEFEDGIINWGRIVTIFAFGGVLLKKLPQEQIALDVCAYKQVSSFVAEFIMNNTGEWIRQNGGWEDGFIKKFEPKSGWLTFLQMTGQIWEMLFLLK

[1] = reduction of Shn3 3'UTR-driven luciferase in osteoblasts – cell-based, Clone20 osteoblasts, firefly luciferase, cherry-picked, dose response (AID 624132); type: functional;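 note: firefly luciferase luminescence from reporter carrying the Shn3 3'UTR in osteoblasts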
[2] = HIV-1 AD8 envelope cell-cell fusion blockers – cherry-pick, dose response (AID 652062); type: functional, cell-based;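 note: luciferase signal from cell-cell fusion driven by HIV-1 clade B AD8 Env; potency is for inhibitors of fusion seen as a drop in luminescence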
[3] = biological target: T2, 1-phosphatidylinositol 4,5-bisphosphate phosphodiesterase beta-3 (Homo sapiens, UniProt Q01970); assay: Fluorescence-based biochemical high throughput dose response assay to identify inhibitors of phospholipase C isozymes (PLC-B3).
T2 sequence (Q01970 whole entry): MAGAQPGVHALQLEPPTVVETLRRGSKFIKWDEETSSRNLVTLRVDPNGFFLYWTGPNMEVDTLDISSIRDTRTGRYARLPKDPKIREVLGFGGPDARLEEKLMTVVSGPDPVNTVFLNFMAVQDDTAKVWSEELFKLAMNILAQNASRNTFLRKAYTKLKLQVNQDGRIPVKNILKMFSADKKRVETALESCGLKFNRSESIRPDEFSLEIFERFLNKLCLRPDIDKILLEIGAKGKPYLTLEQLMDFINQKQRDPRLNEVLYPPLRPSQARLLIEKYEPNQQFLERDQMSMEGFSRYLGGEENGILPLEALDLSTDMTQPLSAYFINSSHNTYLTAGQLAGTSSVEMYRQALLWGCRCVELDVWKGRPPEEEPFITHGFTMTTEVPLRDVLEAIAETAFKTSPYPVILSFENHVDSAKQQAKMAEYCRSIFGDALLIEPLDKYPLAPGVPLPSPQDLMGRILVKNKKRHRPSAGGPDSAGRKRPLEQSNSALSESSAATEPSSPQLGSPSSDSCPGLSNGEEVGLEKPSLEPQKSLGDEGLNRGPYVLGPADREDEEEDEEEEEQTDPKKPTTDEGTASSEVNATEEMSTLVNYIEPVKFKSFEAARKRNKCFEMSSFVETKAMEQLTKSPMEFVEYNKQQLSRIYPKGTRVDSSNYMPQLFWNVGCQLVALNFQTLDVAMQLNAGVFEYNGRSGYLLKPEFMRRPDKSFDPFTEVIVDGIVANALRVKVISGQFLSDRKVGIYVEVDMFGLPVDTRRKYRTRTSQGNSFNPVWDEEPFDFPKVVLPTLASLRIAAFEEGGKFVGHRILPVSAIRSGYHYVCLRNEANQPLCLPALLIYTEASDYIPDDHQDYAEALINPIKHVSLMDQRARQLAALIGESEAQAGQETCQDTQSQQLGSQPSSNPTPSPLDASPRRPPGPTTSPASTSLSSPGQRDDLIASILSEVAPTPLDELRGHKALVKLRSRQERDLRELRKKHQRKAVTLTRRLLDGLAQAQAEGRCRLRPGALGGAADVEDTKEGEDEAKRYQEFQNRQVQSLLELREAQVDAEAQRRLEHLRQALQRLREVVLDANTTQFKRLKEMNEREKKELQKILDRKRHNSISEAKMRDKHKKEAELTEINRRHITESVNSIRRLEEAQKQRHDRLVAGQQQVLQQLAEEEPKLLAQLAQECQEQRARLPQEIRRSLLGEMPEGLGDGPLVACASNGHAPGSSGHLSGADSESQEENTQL

[4] = biological target: Serine/threonine-protein kinase D2 (Homo sapiens, UniProt Q9BZL6); type: functional;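 note: measured against PRKD2 as one member of a kinome-wide kinase profiling panel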
Sequence of Serine/threonine-protein kinase D2 (Q9BZL6 whole entry): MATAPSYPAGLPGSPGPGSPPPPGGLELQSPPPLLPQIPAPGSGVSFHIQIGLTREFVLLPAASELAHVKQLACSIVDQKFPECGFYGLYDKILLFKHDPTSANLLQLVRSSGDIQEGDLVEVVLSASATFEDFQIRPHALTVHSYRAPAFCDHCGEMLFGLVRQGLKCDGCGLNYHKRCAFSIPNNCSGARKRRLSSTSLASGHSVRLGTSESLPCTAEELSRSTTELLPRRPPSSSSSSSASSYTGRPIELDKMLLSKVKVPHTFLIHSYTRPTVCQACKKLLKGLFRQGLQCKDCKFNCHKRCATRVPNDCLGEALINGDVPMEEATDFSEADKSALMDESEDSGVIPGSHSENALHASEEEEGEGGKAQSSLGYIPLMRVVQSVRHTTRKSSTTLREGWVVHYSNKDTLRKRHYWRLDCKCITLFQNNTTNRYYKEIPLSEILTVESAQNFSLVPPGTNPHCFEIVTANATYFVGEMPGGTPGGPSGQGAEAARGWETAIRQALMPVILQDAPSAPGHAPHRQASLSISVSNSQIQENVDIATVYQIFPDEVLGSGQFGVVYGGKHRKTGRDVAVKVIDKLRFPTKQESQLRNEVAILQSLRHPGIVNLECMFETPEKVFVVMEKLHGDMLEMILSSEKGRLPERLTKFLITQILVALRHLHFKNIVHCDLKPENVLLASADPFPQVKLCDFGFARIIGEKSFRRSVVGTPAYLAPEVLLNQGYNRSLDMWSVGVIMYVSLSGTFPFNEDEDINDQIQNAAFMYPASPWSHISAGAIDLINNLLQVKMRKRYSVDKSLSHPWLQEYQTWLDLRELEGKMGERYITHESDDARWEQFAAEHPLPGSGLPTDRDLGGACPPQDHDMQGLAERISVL

[5] = biological target: Tyrosine-protein kinase FRK (Homo sapiens, UniProt P42685); type: functional;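 note: FRK tested as one member of a kinome panel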
Sequence of Tyrosine-protein kinase FRK (P42685 whole entry): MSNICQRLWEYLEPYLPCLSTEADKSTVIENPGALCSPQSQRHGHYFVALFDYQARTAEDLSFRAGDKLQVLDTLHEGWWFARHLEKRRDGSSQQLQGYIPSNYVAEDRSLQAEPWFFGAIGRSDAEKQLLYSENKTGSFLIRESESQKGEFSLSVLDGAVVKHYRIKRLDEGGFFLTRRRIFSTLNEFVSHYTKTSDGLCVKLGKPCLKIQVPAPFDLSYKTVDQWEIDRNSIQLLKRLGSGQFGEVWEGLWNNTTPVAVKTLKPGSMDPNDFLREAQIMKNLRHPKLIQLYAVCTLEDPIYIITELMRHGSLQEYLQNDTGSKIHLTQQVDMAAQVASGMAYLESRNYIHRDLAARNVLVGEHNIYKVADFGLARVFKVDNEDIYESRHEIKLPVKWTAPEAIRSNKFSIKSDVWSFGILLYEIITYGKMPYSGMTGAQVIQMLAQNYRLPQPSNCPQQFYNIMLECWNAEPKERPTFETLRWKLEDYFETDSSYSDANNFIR

[6] = biological target: Cell division cycle 7-related protein kinase (Homo sapiens, UniProt O00311); type: functional;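 note: value obtained from a kinome-wide kinase panel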
Sequence of Cell division cycle 7-related protein kinase (O00311 whole entry): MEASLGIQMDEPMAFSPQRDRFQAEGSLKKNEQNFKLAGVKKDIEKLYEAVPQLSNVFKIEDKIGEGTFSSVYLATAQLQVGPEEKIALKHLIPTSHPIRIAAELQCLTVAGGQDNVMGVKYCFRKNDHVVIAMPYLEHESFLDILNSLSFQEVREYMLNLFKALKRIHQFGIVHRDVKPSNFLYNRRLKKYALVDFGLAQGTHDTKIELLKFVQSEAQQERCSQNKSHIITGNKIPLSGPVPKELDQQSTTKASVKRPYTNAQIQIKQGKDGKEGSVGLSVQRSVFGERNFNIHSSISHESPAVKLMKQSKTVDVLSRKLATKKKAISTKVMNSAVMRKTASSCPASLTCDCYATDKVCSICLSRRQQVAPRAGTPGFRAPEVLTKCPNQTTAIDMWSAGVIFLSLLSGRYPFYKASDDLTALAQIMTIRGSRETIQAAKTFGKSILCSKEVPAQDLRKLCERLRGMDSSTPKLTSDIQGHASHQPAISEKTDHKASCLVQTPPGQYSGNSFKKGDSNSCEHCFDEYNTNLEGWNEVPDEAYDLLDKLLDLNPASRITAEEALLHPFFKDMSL

[7] = biological target: T3, Tyrosine-protein kinase receptor TYRO3 (Homo sapiens, UniProt Q06418); type: functional;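 note: TYRO3 value obtained as one member of a kinome-wide profiling panel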
T3 sequence (Q06418 whole entry): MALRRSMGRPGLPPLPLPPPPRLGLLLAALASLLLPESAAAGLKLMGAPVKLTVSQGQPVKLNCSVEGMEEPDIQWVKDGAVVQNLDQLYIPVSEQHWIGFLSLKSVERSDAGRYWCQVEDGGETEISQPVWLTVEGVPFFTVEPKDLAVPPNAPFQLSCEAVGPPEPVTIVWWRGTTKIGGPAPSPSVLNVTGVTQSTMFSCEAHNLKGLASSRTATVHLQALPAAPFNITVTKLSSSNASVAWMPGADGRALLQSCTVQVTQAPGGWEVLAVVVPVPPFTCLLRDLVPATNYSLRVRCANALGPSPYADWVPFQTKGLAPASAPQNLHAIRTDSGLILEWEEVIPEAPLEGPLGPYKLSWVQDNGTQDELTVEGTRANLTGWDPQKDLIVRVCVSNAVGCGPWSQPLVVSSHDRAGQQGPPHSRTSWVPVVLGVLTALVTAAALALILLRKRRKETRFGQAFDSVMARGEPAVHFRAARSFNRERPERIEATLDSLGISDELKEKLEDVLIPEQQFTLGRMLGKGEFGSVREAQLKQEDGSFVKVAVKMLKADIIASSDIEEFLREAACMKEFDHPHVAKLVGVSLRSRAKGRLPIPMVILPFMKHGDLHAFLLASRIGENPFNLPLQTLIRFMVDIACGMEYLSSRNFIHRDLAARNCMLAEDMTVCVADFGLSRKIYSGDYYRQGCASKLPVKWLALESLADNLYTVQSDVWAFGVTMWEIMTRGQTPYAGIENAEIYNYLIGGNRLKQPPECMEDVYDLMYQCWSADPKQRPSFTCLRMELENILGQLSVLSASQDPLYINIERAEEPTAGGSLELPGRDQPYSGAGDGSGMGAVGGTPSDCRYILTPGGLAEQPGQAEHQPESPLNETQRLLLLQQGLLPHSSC

LIM domain kinase 1 = LIM domain kinase 1 (Homo sapiens, UniProt P53667); assay: Navigating the Kinome. Panel member name: LIMK1; type: functional
Sequence of LIM domain kinase 1 (P53667 whole entry, the tested form may be a part): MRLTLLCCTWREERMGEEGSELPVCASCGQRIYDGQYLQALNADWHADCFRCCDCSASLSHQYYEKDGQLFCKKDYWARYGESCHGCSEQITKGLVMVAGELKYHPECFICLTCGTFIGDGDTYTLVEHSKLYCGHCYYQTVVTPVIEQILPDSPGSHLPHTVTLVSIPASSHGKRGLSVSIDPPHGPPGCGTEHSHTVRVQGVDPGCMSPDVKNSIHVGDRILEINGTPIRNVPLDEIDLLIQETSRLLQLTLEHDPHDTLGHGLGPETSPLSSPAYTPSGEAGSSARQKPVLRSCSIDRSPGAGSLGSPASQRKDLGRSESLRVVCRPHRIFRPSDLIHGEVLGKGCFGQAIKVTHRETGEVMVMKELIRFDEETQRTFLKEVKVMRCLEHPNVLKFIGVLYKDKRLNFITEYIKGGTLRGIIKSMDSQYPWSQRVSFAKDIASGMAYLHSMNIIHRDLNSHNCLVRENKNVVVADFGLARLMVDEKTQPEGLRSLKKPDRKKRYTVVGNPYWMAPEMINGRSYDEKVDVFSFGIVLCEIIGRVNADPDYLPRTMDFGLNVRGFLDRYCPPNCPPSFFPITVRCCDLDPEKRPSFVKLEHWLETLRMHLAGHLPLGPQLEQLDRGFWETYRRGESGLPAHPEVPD

[8] = biological target: Cyclin-dependent kinase 7 (Homo sapiens, UniProt P50613); type: functional;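 note: value comes from a kinome-wide kinase profiling panel in which CDK7 is one member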
Sequence of Cyclin-dependent kinase 7 (P50613 whole entry): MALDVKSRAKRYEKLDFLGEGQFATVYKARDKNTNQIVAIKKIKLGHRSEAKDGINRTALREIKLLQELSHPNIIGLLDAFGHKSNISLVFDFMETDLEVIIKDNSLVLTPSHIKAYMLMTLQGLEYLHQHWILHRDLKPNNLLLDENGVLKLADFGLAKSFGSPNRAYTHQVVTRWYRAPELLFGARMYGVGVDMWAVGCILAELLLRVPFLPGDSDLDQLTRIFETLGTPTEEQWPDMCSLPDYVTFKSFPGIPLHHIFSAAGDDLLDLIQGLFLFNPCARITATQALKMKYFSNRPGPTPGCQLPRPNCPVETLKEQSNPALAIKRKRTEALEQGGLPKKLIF

[9] = biological target: Dual specificity mitogen-activated protein kinase kinase 2 (Homo sapiens, UniProt P36507); assay: Navigating the Kinome. Panel member name: MAP2K2; type: functional
Sequence of Dual specificity mitogen-activated protein kinase kinase 2 (P36507 whole entry): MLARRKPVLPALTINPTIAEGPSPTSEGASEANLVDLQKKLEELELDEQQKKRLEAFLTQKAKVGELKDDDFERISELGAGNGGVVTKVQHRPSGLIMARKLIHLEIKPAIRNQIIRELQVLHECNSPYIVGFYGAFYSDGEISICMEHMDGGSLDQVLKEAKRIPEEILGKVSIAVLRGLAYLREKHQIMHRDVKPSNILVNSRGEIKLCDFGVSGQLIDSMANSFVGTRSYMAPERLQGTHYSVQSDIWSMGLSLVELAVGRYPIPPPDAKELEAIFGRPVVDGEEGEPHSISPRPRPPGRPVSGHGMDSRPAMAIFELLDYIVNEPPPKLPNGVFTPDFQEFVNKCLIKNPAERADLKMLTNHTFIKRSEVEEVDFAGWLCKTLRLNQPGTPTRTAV

Compound	Ki [4]	Ki [5]	Ki [6]	Ki [7]	other results
COC(=O)CCS(=O)(=O)c1nc(-c2ccccc2)cc(C(F)(F)F)n1	–	–	–	–	IC50 (cells): 4780 nM (active)
O=C(O)c1ccc2c3c(ncnc13)-c1ccccc1C2=O	–	–	–	–	IC50 (Bcl-2-related protein A1): > 100000 nM (not active)
CCOC(=O)c1c2c(n(Cc3ccccc3)c1C)C(=O)C(=O)c1ccccc1-2	–	–	–	–	AC50 [1]: 2300 nM (active); AC50 [2]: 10600 nM (active); IC50 [3]: > 123000 nM (inactive)
Cc1ccc2nccc(NC(=O)Nc3cccc(C(F)(F)F)n3)c2c1	> 10000 nM (inactive)	100 nM (active)	> 1260 nM (inactive)	> 2510 nM (inactive)	–
COc1cc2c(cc1F)C(c1ccccc1Cl)=Nc1c(n[nH]c1C)N2 [RG-1530]	> 10000 nM (inactive)	79.4 nM (active)	> 1260 nM (inactive)	> 2510 nM (inactive)	Ki (LIM domain kinase 1): 501 nM (active); Ki [8]: 631 nM (active); Ki [9]: 2510 nM (active)
